Data reported in paper PMC5716993, “The interdomain flexible linker of the polypeptide GalNAc transferases dictates their long-range glycosylation preferences” (Nature Communications, 2017).

Molecular target: T1, GalNAc-T4 (Homo sapiens, UniProt Q8N4A0)
T1 construct: amino acid residues 36–578 of the human GalNAc-T4; histidine tag (C); made in house; host or cells: Pichia pastoris SMD1168 (pPICZαA, secreted)
Test: STD-NMR binding / epitope mapping
Conditions: normalized to the highest STD response; 298 K, pH 7.4, UDP, MnCl2; in words
Procedure: All NMR experiments were recorded on a Bruker Avance 600 MHz spectrometer equipped with a triple channel cryoprobe head. The^1H NMR resonances of the peptides 1–3 were completely assigned through standard 2D-TOCSY (30 and 80 ms mixing time) and 2D-NOESY experiments (400 ms mixing time). Solution conditions used for the NMR characterization studies were 1–3 mM (glyco)peptide, 25 mM perdeuterated tris-d11 in 90:10 H2O/D2O, 7.5 mM NaCl, and 1 mM DTT, uncorrected pH 7.4. The assignments were accomplished either at 278 or 298 K. The resonance of 2,2,3,3-tetradeutero-3-trimethylsilylpropionic acid (TSP) was used as a chemical shift reference in the^1H NMR experiments (δ TSP = 0 ppm). Peak lists for the 2D-TOCSY and 2D-NOESY spectra were generated by interactive peak picking using the computer aided resonance assignment (CARA) software.
Samples for STD experiments were prepared in perdeuterated 25 mM TRIS-d11 in deuterated water, 7.5 mM NaCl, and 1 mM DTT, uncorrected pH 7.4. STD-NMR experiments were performed at 298 K in the presence of 75 μM UDP, 75 μM MnCl2 with ~880 μM peptide (or GalNAc-O-Me) and 13.5 μM GalNAc-T4 giving a molar ratio of 65:1 peptide:GalNAc-T4.
The STD-NMR spectra were acquired with 1920 transients in a matrix with 64 k data points in t2 in a spectral window of 12335.53 Hz centered at 2819.65 Hz. An excitation sculpting module with gradients was employed to suppress the water proton signals. Selective saturation of the protein resonances (on resonance spectrum) was performed by irradiating at −1 ppm using a series of Eburp2.1000-shaped 90° pulses (50 ms, 1 ms delay between pulses) for a total saturation time of 2.0 s. For the reference spectrum (off resonance), the samples were irradiated at 100 ppm. Proper control experiments were performed with the ligands in the presence and absence of the protein in order to optimize the frequency for protein saturation (−1 ppm) and to ensure that the ligand signals were not affected. […] This nonspecific saturation was taken into account, by subtraction, when quantifying the STD-NMR data in the presence of the transferase. As well, a blank STD experiment with only the protein was also recorded. The substraction of this protein STD spectrum allowed eliminating the signal background of the protein. In all cases, to accomplish the STD-NMR-derived epitope mapping of each ligand, the STD-NMR total intensities were normalized with respect to the highest STD-NMR response. For Fig. 2b and Supplementary Fig. 1, the STD response of each amino acid corresponds to the average of STD percentages of all amino acid proton resonances that were measured with sufficient accuracy. The signal of the anomeric proton of as well as, the Hα protons of the Ala amino acids of glycopeptides could not be analyzed in the STD-NMR spectra due to their close proximity to the HDO resonance. Proton resonances, from Gly and Pro, appear in the same chemical shift region of the spectrum and were not discriminated.

T1 sequence (Q8N4A0 36-578): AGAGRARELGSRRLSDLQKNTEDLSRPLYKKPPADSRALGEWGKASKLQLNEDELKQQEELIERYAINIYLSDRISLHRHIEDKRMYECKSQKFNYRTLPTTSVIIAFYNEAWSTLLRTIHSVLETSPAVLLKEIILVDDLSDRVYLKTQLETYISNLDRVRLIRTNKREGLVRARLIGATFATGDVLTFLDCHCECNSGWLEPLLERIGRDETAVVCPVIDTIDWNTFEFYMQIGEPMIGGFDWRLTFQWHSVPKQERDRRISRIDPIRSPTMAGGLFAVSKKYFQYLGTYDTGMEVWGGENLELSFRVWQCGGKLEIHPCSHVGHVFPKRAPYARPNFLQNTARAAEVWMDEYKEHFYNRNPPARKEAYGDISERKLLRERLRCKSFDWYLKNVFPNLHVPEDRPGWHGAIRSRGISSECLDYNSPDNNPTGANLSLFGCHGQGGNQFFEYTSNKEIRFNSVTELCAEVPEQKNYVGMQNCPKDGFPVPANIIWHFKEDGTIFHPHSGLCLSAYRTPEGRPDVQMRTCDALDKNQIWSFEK

In the case of `CO[C@H]1O[C@H](CO)[C@H](O)[C@H](O)[C@H]1NC(C)=O` [α-methyl-GalNAc, reference compound], the “STD-NMR-derived epitope mapping of GalNAc moiety” value is reported as “the highest STD response corresponded to the H2 proton of the GalNAc moiety followed by a modest STD of protons H4, H3, and N-acetyl group”.
